# Measured values from ChEMBL document CHEMBL3045443, “Mode for Herbicidal Action of 2-Amino-3-chloro-1,4-naphthoquinone (ACN)” (Biosci Biotechnol Biochem, 1994).
# How the values were obtained:
# Format in all cases: functional
# Scenedesmus acutus [1] = experiment: Herbicidal activity against Scenedesmus acutus assessed as chlorophyll content per ml of packed-cell volume at 10^-6 M autotrophically for 20 hr by phytotoxicity assay (reference value: 5.32 mg/ml pcv)
# Scenedesmus acutus [2] = experiment: Herbicidal activity against Scenedesmus acutus assessed as packed-cell volume per ml of culture at 10^-4 M autotrophically for 20 hr by phytotoxicity assay (reference value: 6.6 ul pcv/ml)
# Scenedesmus acutus [3] = experiment: Herbicidal activity against Scenedesmus acutus assessed as packed-cell volume per ml of culture at 10^-5 M autotrophically for 20 hr by phytotoxicity assay (reference value: 6.6 ul pcv/ml)
# Scenedesmus acutus [4] = experiment: Herbicidal activity against Scenedesmus acutus assessed as ethane production per ml of packed-cell volume at 10^-4 M autotrophically for 20 hr by phytotoxicity assay (reference value: 0.28 nM/ml pcv)
# Scenedesmus acutus [5] = experiment: Herbicidal activity against Scenedesmus acutus assessed as protoporphyrin-IX content per ml of packed-cell volume at 10^-5 M autotrophically for 20 hr by phytotoxicity assay (reference value: 2 nM/ml pcv)
# Scenedesmus acutus [6] = experiment: Herbicidal activity against Scenedesmus acutus assessed as protoporphyrin-IX content per ml of packed-cell volume at 10^-4 M autotrophically for 20 hr by phytotoxicity assay (reference value: 2 nM/ml pcv)
# Scenedesmus acutus [7] = experiment: Herbicidal activity against Scenedesmus acutus assessed as chlorophyll content per ml of packed-cell volume at 10^-6 M heterotrophically for 20 hr by phytotoxicity assay (reference value: 6.52 mg/ml pcv)
# Scenedesmus acutus [8] = experiment: Herbicidal activity against Scenedesmus acutus assessed as chlorophyll content per ml of packed-cell volume at 10^-5 M heterotrophically for 20 hr by phytotoxicity assay (reference value: 6.52 mg/ml pcv)
# Scenedesmus acutus [9] = experiment: Herbicidal activity against Scenedesmus acutus assessed as growth measured as packed-cell volume per ml of culture at 10^-4 M heterotrophically for 20 hr by phytotoxicity assay (reference value: 1.5 ul pcv/ml)
# Scenedesmus acutus [10] = experiment: Herbicidal activity against Scenedesmus acutus assessed as chlorophyll content per ml of packed-cell volume at 10^-5 M autotrophically for 20 hr by phytotoxicity assay (reference value: 5.32 mg/ml pcv)
# Scenedesmus acutus [11] = experiment: Herbicidal activity against Scenedesmus acutus assessed as chlorophyll content per ml of packed-cell volume at 10^-4 M autotrophically for 20 hr by phytotoxicity assay (reference value: 5.32 mg/ml pcv)
# Scenedesmus acutus [12] = experiment: Herbicidal activity against Scenedesmus acutus assessed as protoporphyrin-IX content per ml of packed-cell volume at 10^-6 M autotrophically for 20 hr by phytotoxicity assay (reference value: 2 nM/ml pcv)
# Scenedesmus acutus [13] = experiment: Herbicidal activity against Scenedesmus acutus assessed as ethane production per ml of packed-cell volume at 10^-6 M autotrophically for 20 hr by phytotoxicity assay (reference value: 0.28 nM/ml pcv)
# Scenedesmus acutus [14] = experiment: Herbicidal activity against Scenedesmus acutus assessed as chlorophyll content per ml of packed-cell volume at 10^-4 M heterotrophically for 20 hr by phytotoxicity assay (reference value: 6.52 mg/ml pcv)
# Scenedesmus acutus [15] = experiment: Herbicidal activity against Scenedesmus acutus assessed as ethane production per ml of packed-cell volume at 10^-5 M autotrophically for 20 hr by phytotoxicity assay (reference value: 0.28 nM/ml pcv)
# Scenedesmus acutus [16] = experiment: Herbicidal activity against Scenedesmus acutus assessed as growth measured as packed-cell volume per ml of culture at 10^-6 M heterotrophically for 20 hr by phytotoxicity assay (reference value: 1.5 ul pcv/ml)
# Scenedesmus acutus [17] = experiment: Herbicidal activity against Scenedesmus acutus assessed as growth measured as packed-cell volume per ml of culture at 10^-5 M heterotrophically for 20 hr by phytotoxicity assay (reference value: 1.5 ul pcv/ml)
# Scenedesmus acutus [18] = experiment: Herbicidal activity against Scenedesmus acutus assessed as packed-cell volume per ml of culture at 10^-6 M autotrophically for 20 hr by phytotoxicity assay (reference value: 6.6 ul pcv/ml)
# Scenedesmus acutus [19] = experiment: Herbicidal activity against Scenedesmus acutus assessed as growth measured as packed-cell volume per ml of culture at 10^-7 M heterotrophically for 20 hr by phytotoxicity assay (reference value: 1.5 ul pcv/ml)
# Scenedesmus acutus [20] = experiment: Herbicidal activity against Scenedesmus acutus assessed as chlorophyll content per ml of packed-cell volume at 10^-7 M heterotrophically for 20 hr by phytotoxicity assay (reference value: 6.52 mg/ml pcv)
Structure (SMILES),Activity (Scenedesmus acutus [1]) [mg],Activity (Scenedesmus acutus [2]) [µL],Activity (Scenedesmus acutus [3]) [µL],Activity (Scenedesmus acutus [4]) [nM],Activity (Scenedesmus acutus [5]) [nM],Activity (Scenedesmus acutus [6]) [nM],Activity (Scenedesmus acutus [7]) [mg],Activity (Scenedesmus acutus [8]) [mg],Activity (Scenedesmus acutus [9]) [µL],Activity (Scenedesmus acutus [10]) [mg],Activity (Scenedesmus acutus [11]) [mg],Activity (Scenedesmus acutus [12]) [nM],Activity (Scenedesmus acutus [13]) [nM],Activity (Scenedesmus acutus [14]) [mg],Activity (Scenedesmus acutus [15]) [nM],Activity (Scenedesmus acutus [16]) [µL],Activity (Scenedesmus acutus [17]) [µL],Activity (Scenedesmus acutus [18]) [µL],Activity (Scenedesmus acutus [19]) [µL],Activity (Scenedesmus acutus [20]) [mg]
NC1=C(Cl)C(=O)c2ccccc2C1=O,3.67,2.1,2.6,10.43,2,3.5,5.22,4.76,1.1,0.07,0,2,0.23,4.76,7.51,1.3,1.1,4.2,,
O=C1C2=C(CCCC2)C(=O)N1c1ccc(Cl)cc1 [CHLOROPHTHALIUM],0.25,,2.4,,,,4.9,2.85,,0.17,,23.5,8.77,,,1.1,1,2.8,1.3,6.65
CCC(C)c1cc([N+](=O)[O-])cc([N+](=O)[O-])c1O (stereo unspecified) [DINOSEB],5.5,,5.3,,2,,,,,5.91,,1.5,0.18,,0.34,,,6.6,,
N#Cc1cc(I)c(O)c(I)c1 [IOXYNIL],5.71,,5.7,,2,,,,,5.82,,2.5,0.22,,0.3,,,6.5,,
